We go through 16 substances from the OligoGym collection.

One data set deals with UBE2T. The experiment in a line: reporter assay of Huesken 2005. Particulars: siRNA. A general note: In a reporter assay the amount or activity of a reporter protein is the signal.
In another data set the target is UBE2D3. The experiment in a line: reporter assay of Huesken 2005. The conditions noted are these: siRNA.

Oligonucleotides are written 5' to 3', each unit as a sugar letter and its base; * is a phosphorothioate linkage, no mark a phosphodiester; rarer units and linkages stand in square brackets, end groups in braces. Plain capitals give the bases only. Oligonucleotides are given in HELM: sugar(base)linkage, 5' to 3'; d 2'-deoxyribose, r ribose, m 2'-O-methylribose, p phosphate. ss, as = sense and antisense strand; d = 2'-deoxy (DNA); r = 2'-OH (RNA)
Further: test concentration or dose not given here.

For “sense rArCrCrUrCrCrUrCrArGrArUrCrCrGrArUrUrUdTdT / antisense rArArArUrCrGrGrArUrCrUrGrArGrGrArGrGrUdTdC”, the normalised inhibition (eCFP-eYFP dual reporter) with UBE2T came out at 100%.
Consider “sense rUrGrArGrGrArArGrArGrArUrGrCrUrUrGrArUdTdT / antisense rArUrCrArArGrCrArUrCrUrCrUrUrCrCrUrCrAdTdC”, for which the normalised inhibition (eCFP-eYFP dual reporter) in the data set with UBE2T is 91.6%.
On the same count and under the same terms, as for “sense rCrUrCrArArArUrUrGrCrCrArCrCrArArArArGdTdT / antisense rCrUrUrUrUrGrGrUrGrGrCrArArUrUrUrGrArGdAdA”, the figure is 68.5%; as for “sense rCrCrArArUrUrUrArUrCrArUrCrCrArArArCrAdTdT / antisense rUrGrUrUrUrGrGrArUrGrArUrArArArUrUrGrGdAdG”, 101%; as for “sense rUrCrArCrUrCrCrArArUrUrUrArUrCrArUrCrCdTdT / antisense rGrGrArUrGrArUrArArArUrUrGrGrArGrUrGrAdGdA”, 56.8%.
Turning to “sense rCrUrGrCrUrCrArUrGrUrCrArGrArArCrCrCrAdTdT / antisense rUrGrGrGrUrUrCrUrGrArCrArUrGrArGrCrArGdCdT”, the normalised inhibition (eCFP-eYFP dual reporter) with UBE2T was found to be 104%.
As to “sense rGrUrGrArCrUrCrCrArGrArGrUrArCrArCrArAdTdT / antisense rUrUrGrUrGrUrArCrUrCrUrGrGrArGrUrCrArCdCdA”, the normalised inhibition (eCFP-eYFP dual reporter) with UBE2T came to 108%.
Take “sense rCrCrArArArArGrGrUrGrCrUrUrGrGrArGrArCdTdT / antisense rGrUrCrUrCrCrArArGrCrArCrCrUrUrUrUrGrGdTdG”: the normalised inhibition (eCFP-eYFP dual reporter) with UBE2T is 84.9%.
Take “sense rArGrArArUrGrCrCrArGrArCrArGrUrGrGrArCdTdT / antisense rGrUrCrCrArCrUrGrUrCrUrGrGrCrArUrUrCrUdTdG”: the normalised inhibition (eCFP-eYFP dual reporter) in the data set with UBE2T is 95%.
Still for that read-out and setting: as for “sense rArCrCrCrUrGrArUrGrArCrCrCrGrCrUrCrArUdTdT / antisense rArUrGrArGrCrGrGrGrUrCrArUrCrArGrGrGrUdTdG”, the figure is 101%; as for “sense rGrArUrGrArGrGrArArGrArGrArUrGrCrUrUrGdTdT / antisense rCrArArGrCrArUrCrUrCrUrUrCrCrUrCrArUrCdAdG”, 95.1%; as for “sense rCrGrArUrUrUrCrUrCrArCrUrCrCrArArUrUrUdTdT / antisense rArArArUrUrGrGrArGrUrGrArGrArArArUrCrGdGdA”, 107%.
“sense rUrCrUrGrCrUrGrGrArArGrGrArUrUrUrGrUrCdTdT / antisense rGrArCrArArArUrCrCrUrUrCrCrArGrCrArGrAdAdT”: the normalised inhibition (eCFP-eYFP dual reporter) with UBE2T was 87.8%.
As to “sense rGrCrGrArGrCrUrCrArArArUrArUrUrArGrGrUdTdT / antisense rArCrCrUrArArUrArUrUrUrGrArGrCrUrCrGrCdAdG”, the normalised inhibition (eCFP-eYFP dual reporter) with UBE2T amounted to 71.6%.
As for “RNA1{r(A)p.r(U)p.r(C)p.r(C)p.r(A)p.r(A)p.r(A)p.r(C)p.r(C)p.r(C)p.r(A)p.r(G)p.r(A)p.r(U)p.r(G)p.r(A)p.r(C)p.r(C)p.r(C)p.d(T)p.d(T)}|RNA2{r(G)p.r(G)p.r(G)p.r(U)p.r(C)p.r(A)p.r(U)p.r(C)p.r(U)p.r(G)p.r(G)p.r(G)p.r(U)p.r(U)p.r(U)p.r(G)p.r(G)p.r(A)p.r(U)p.d(C)p.d(A)}$$$RNA1{StrandType:ss}|RNA2{StrandType:as}$”, the normalised inhibition (eCFP-eYFP dual reporter) in the data set with UBE2D3 stood at 44.5%.
On to “RNA1{r(C)p.r(A)p.r(U)p.r(U)p.r(G)p.r(G)p.r(C)p.r(A)p.r(A)p.r(G)p.r(C)p.r(C)p.r(A)p.r(C)p.r(A)p.r(A)p.r(U)p.r(U)p.r(A)p.d(T)p.d(T)}|RNA2{r(U)p.r(A)p.r(A)p.r(U)p.r(U)p.r(G)p.r(U)p.r(G)p.r(G)p.r(C)p.r(U)p.r(U)p.r(G)p.r(C)p.r(C)p.r(A)p.r(A)p.r(U)p.r(G)p.d(A)p.d(A)}$$$RNA1{StrandType:ss}|RNA2{StrandType:as}$”, for which the normalised inhibition (eCFP-eYFP dual reporter) with UBE2D3 turned out to be 100%.
